In article PMC7297817, “Pharmacological Characterization of a Betaine/GABA Transporter 1 (BGT1) Inhibitor Displaying an Unusual Biphasic Inhibition Profile and Anti-seizure Effects” (Neurochemical Research, 2020):

Legend:
Beta3 = target: T1, Beta3 (Homo sapiens, UniProt P13945); experiment: NIMH PDSP radioligand binding, Beta3; settings: radioligand [3H]CGP12177, n=4
T1 construct: purchased NIMH Psychoactive Drug Screening Program (PDSP)

5-HT3 = target: T2, 5-HT3 (Homo sapiens, UniProt P46098); experiment: NIMH PDSP radioligand binding, 5-HT3; settings: radioligand [3H]LY278584, n=4
T2 construct: purchased NIMH Psychoactive Drug Screening Program (PDSP)
T2 sequence (P46098 24-478): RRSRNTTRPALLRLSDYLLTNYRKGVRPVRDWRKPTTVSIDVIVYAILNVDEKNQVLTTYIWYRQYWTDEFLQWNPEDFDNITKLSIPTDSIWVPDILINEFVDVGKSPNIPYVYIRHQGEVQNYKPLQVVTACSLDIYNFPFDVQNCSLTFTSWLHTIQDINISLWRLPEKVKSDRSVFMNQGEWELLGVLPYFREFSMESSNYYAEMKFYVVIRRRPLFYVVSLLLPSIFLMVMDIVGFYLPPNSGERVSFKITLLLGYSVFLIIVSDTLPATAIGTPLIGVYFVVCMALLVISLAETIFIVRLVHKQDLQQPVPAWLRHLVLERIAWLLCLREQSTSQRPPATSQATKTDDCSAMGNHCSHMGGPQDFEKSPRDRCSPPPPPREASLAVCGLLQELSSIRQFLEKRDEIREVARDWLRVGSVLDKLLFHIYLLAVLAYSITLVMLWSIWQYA

T1 sequence (P13945 whole entry): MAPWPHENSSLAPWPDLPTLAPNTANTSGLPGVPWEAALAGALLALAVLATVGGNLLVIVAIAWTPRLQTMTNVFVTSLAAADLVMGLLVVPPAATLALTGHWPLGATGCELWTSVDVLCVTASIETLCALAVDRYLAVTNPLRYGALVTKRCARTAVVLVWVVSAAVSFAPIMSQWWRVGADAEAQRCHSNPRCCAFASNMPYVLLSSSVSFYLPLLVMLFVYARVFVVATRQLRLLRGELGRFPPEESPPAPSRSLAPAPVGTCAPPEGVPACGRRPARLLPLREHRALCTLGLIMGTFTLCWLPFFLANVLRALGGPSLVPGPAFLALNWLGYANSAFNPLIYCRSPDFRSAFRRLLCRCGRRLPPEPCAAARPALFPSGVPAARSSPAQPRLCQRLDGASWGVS

## Cc1ccsc1C(=CCCN(C)[C@H]1CCCC[C@H]1C(=O)O)c1sccc1C [SBV2-114, (1R,2S)-2-((4,4-bis(3-methylthiophen-2-yl)but-3-en-yl)(methyl)amino)cyclohexanecarboxylic acid]
Beta3
  inhibition at 10 µM: 8.3%
5-HT3
  inhibition at 10 µM: -3%
